pIC50: −log10 of the molar value. Active and inactive are the calls of the source. How the calls were made is not given here.
Tests used:
Cytotoxicity = assay: NFkB reporter suppression in cystic fibrosis bronchial cells – cell-based, uHTS hits, panel, cytotoxicity readout, dose response (AID 624344); conditions: CF bronchial epithelial cells, mean of runs
[1] = as above; conditions: CF bronchial epithelial cells, PAF-induced NFkB reporter inhibition; with PAF, mean of runs

With `CCc1ccc(N(CC)c2ncnc3nc[nH]c23)cc1` the IC50 (Cytotoxicity) was > 79 µM (inactive) and the pIC50 [1] was 5.74.
`COc1ccc(CN(C)C(=O)c2cc(-c3ccc(C)cc3C)nc3ccccc23)c(OC)c1OC` gave a pIC50 (Cytotoxicity) of 5.15 and a pIC50 [1] of 5.19.
In the case of `CC(=O)N1CC(=O)N=C1SCC(=O)Nc1nc(C)c(-c2ccccc2)s1`, the IC50 (Cytotoxicity) was 59.7 µM (inactive) and the pIC50 [1] was 5.04.
With `Cc1ccc(S(=O)(=O)n2cc(-c3ccccc3)c3ccccc32)cc1` the IC50 (Cytotoxicity) was > 79 µM (inactive) and the pIC50 [1] was 5.26.
Work on `OCCCNc1ncnc2scc(-c3ccc(Cl)cc3)c12` yielded a pIC50 (Cytotoxicity) of 4.49 and a pIC50 [1] of 5.63.
`COc1ccc(N(Cc2cc(=O)[nH]c3ccccc23)C(=O)CCl)cc1` showed a pIC50 (Cytotoxicity) of 5.37 and a pIC50 [1] of 5.54.
With `C=CC[C@@H](CC(=O)N[C@H](CO)Cc1ccccc1)C(=O)NC[C@H](OC(=O)[C@@H](CC=C)Cc1ccc(F)cc1)c1ccccc1` the pIC50 (Cytotoxicity) was 5.05 and the pIC50 [1] was 5.25.
Compound `COc1ccc(-n2nc(C(=O)NCC(=O)Nc3cc(OC)c(OC)c(OC)c3)c3ccccc3c2=O)cc1OC` has a pIC50 (Cytotoxicity) of 4.84 and a pIC50 [1] of 5.65.
`O=C(Nc1nnc(S(=O)(=O)N2CCCCCC2)s1)c1cccc(Br)c1` gave a pIC50 (Cytotoxicity) of 5.14 and a pIC50 [1] of 5.57.
Work on `COc1cc2c(c(OC)c1OC)-c1ccc(NCc3ccccc3)c(=O)cc1C(NC(C)=O)CC2` (stereo not given) yielded a pIC50 (Cytotoxicity) of 4.34 and a pIC50 [1] of 4.81.
`COc1ccc(OC)c(-c2nnc3n2N=C(c2ccc(OC)c(OCC4CC4)c2)CS3)c1` showed a pIC50 (Cytotoxicity) of 4.32 and a pIC50 [1] of 5.41.
Work on `C[C@@H](NC(=O)c1coc(=O)c(Br)c1)c1ccccc1` yielded a pIC50 (Cytotoxicity) of 5.31 and a pIC50 [1] of 5.39.
In the case of `Cc1ccc(N=Cc2cc3c(cc2O)OC(N)=C(C#N)C3c2ccccc2)cc1` (stereo not given), the IC50 (Cytotoxicity) was 53.6 µM (inactive) and the pIC50 [1] was 5.68.
Work on `COc1ccccc1/C=C/C(=O)c1c2c(c(C)[nH]c1=O)CCCC2` yielded a pIC50 (Cytotoxicity) of 4.38 and a pIC50 [1] of 5.53.
With `C/C(=N/NC(=O)c1cccs1)c1ccc(NC(=O)COc2ccc(Cl)cc2)cc1` the pIC50 (Cytotoxicity) was 4.58 and the IC50 [1] was “inactive”.
`O=C(Nc1ccncc1)c1c(Cl)cccc1Cl` showed a pIC50 (Cytotoxicity) of 4.41 and a pIC50 [1] of 5.30.
With `CC1(Cc2ccc(F)cc2)C(=O)Nc2ccc(-c3cccnc3)cc21` (stereo not given) the pIC50 (Cytotoxicity) was 4.73 and the pIC50 [1] was 5.60.
`COc1cc(CCc2ccccc2)c(C(=O)O)c(O)c1C/C=C(/C)CCC=C(C)C` gave a pIC50 (Cytotoxicity) of 4.83 and a pIC50 [1] of 5.20.
For `Cc1ccc(S(=O)(=O)N2[C@@H](c3ccc(C(C)(C)C)cc3)C(C(=O)O)=CC[C@H]2c2ccc(C(C)C)cc2)cc1`, the IC50 (Cytotoxicity) was 55.7 µM (inactive) and the pIC50 [1] was 4.89.
In the case of `CCOc1cccc(-c2nnc3sc(C4CCCCC4)nn23)c1`, the pIC50 (Cytotoxicity) was 4.48 and the pIC50 [1] was 5.54.
With `Cc1ccc2c(c1)C(=O)C(=O)N2Cc1ccc(Br)cc1` the IC50 (Cytotoxicity) was > 79 µM (inactive) and the pIC50 [1] was 4.72.
With `Cc1nnc(SCC(=O)N2CCC(c3noc4ccc(F)cc34)CC2)s1` the IC50 (Cytotoxicity) was > 79 µM (inactive) and the pIC50 [1] was 5.93.
For `NC(=O)c1sc2nc3c(c(-c4ccccc4)c2c1N)CCC3`, the IC50 (Cytotoxicity) was 60.1 µM (inactive) and the pIC50 [1] was 5.93.
`CC1Cc2ccccc2N1c1ncnc2nc[nH]c12` (stereo not given) showed a pIC50 (Cytotoxicity) of 4.44 and a pIC50 [1] of 5.61.
In the case of `CNC(=O)c1ccc(NC(=O)C2CCN(c3ncnc4sc(C)c(C)c34)CC2)cc1`, the IC50 (Cytotoxicity) was > 79 µM (inactive) and the pIC50 [1] was 5.26.
Work on `CC(C)C[C@@H](CN1CCCC1CN1C(=S)NC[C@@H]1Cc1ccc(O)cc1)N1C[C@H](Cc2ccc(O)cc2)N(CCc2ccccc2)C1=S` (stereo not given in full) yielded a pIC50 (Cytotoxicity) of 4.74 and a pIC50 [1] of 4.96.
In the case of `O=[N+]([O-])c1ccc(NC(=S)NCCc2ccc(F)cc2)cc1`, the pIC50 (Cytotoxicity) was 5.34 and the pIC50 [1] was 5.34.
In the case of `COc1ccc(CN(CCC(c2ccc(F)cc2)C2CCOC(C)(C)C2)C(=O)c2ccco2)cc1` (stereo not given), the pIC50 (Cytotoxicity) was 5.05 and the pIC50 [1] was 5.18.
In the case of `CC(C)(C)S(=O)N1Cc2cc(C(=O)NCC(F)(F)F)nc(-c3cccc(-c4cccc(F)c4)c3)c2[C@@H]1CCO` (stereo not given in full), the pIC50 (Cytotoxicity) was 4.80 and the pIC50 [1] was 5.23.
In the case of `O=C(c1cncc(Br)c1)N1CCc2ccccc2C1`, the IC50 (Cytotoxicity) was > 79 µM (inactive) and the pIC50 [1] was 5.06.
With `COc1ccc(-c2cnc3c(NC=O)cc(-c4ccccc4OC)cn23)cc1OC` the pIC50 (Cytotoxicity) was 4.86 and the pIC50 [1] was 5.19.
In the case of `COc1ccc(-c2cncnc2-c2ccc(OC)cc2O)cc1`, the IC50 (Cytotoxicity) was > 79 µM (inactive) and the pIC50 [1] was 5.36.
For `COc1ccc(C(=O)N[C@H](C(=O)Nc2nc3ccccc3[nH]2)C(C)C)cc1`, the IC50 (Cytotoxicity) was > 79 µM (inactive) and the pIC50 [1] was 4.84.
`COc1ccc(-c2cnc3c(NC=O)cc(-c4ccc(C(=O)N5CCOCC5)cc4)cn23)cc1OC` gave a pIC50 (Cytotoxicity) of 4.83 and a pIC50 [1] of 5.53.
With `CCOC(=O)C1=C(CC)Nc2ccccc2N=C1NC(=O)Nc1ccc(Cl)c(Cl)c1` the pIC50 (Cytotoxicity) was 5.22 and the pIC50 [1] was 5.56.
For `COc1cc(-c2cc(C(=O)Nc3ccc(S(=O)(=O)NCc4ccco4)cc3)c3ccccc3n2)cc(OC)c1OC`, the pIC50 (Cytotoxicity) was 5.13 and the pIC50 [1] was 5.40.
With `COc1ccc(-n2nnnc2C(CCSC)N2CCC(n3c(=O)[nH]c4ccccc43)CC2)cc1` (stereo not given) the pIC50 (Cytotoxicity) was 4.86 and the pIC50 [1] was 5.19.
For `O=C(COC(=O)c1ccc2[nH]c3c(c2c1)CCCC3)Nc1ccccc1Cl`, the pIC50 (Cytotoxicity) was 4.44 and the IC50 [1] was “inactive”.
`Cc1ccc(C)c(S(=O)(=O)N(C(=O)c2ccncc2)c2ccc(OC(=O)c3ccncc3)cc2)c1` gave a pIC50 (Cytotoxicity) of 4.58 and a pIC50 [1] of 5.63.
With `COc1cccc(-c2nnc3n2N=C(C(C)(C)C)CS3)c1` the pIC50 (Cytotoxicity) was 4.94 and the pIC50 [1] was 6.35.
